# Test results: US20030003071A1, “Hair growth stimulant” (priority 2000, published 2003)
# How the values were obtained:
# [1] = tested on: immortalized outer hair root sheath cells; assay: Immortalized outer hair root sheath cell proliferation test (cellular DNA, Hoechst 33258); assay type: cell-based, human; settings: 10 nM, 1 μM, 100 μM or 10 mM in KBM; 4 days culture; negative control = 100
# Protocol: <Immortalized Outer Hair Root Sheath Cell Proliferation Tests>
# [Culturing of Immortalized Outer Hair Root Sheath Cells]
# Hair follicles were isolated from human scalp skin using scissors under a stereoscopic microscope. The hair follicles were cut off at the lower part of the sebaceous gland, and enzyme treatment was carried out with collagenase and dispase.
# The hair bulb was cut off with scissors and excluded, and the hair shaft was separated with tweezers.
# The hair shaft was subjected to enzyme treatment with trypsin, and then the reaction was stopped with trypsin inhibitor.
# Centrifuging was carried out, the supernatant was thrown away, and the outer hair root sheath cells were recovered. […]
# First generation cultured outer hair root sheath cells cultured until the cloning confluence of the cells was about 50% were washed with K-SFM, and then infection was carried out by adding the above-mentioned virus in a quantity of 1, 10 or 30 MOI (multiplicity of infection). […]
# The cells were thawed, and were then added to each […], and smashed up with sonication. The cells were then transferred into a cuvette, and the fluorescence intensity was measured at an excitation wavelength of 356 nm and a fluorescence wavelength of 460 nm.
# [2] = tested on: cultured rat hair follicle epithelial cells; assay: Cell proliferation test using cultured rat hair follicle epithelial cells (alamar blue); assay type: cell-based; settings: object substance concentration 1.0×10^−5% in KBM medium, 2 days culture, negative control 0, positive control (insulin + hydrocortisone) 1
# Excerpt: B. Rat Hair Follicle Epithelial Cells
# 1. Collection of Rat Hair Follicle Epithelial Cells
# (1) Collection of Hair Follicles
# Dorsal skin was collected from newborn (3˜4-day-old) rats, and this collected dorsal skin was soaked two pieces at a time in PBS (−) containing 1% PSF.
# Lower parts such as subcutaneous fat and membranes were then removed from the dermal fat layer using dissecting scissors.
# Next, the dorsal skin was again soaked in PBS (−) containing 1% PSF, and was then soaked overnight at 4° C. in PBS (−) containing 0.25% trypsin (also containing 0.02% EDTA; likewise hereinafter). […]
# A cell freezing liquid (Cellbanker; made by DAIYATRON) was added to the hair follicle epithelial cells, the concentration was adjusted to 1.5×10^7 cells/ml, 1.5×10^7 cells were put into each freezing tube, and storage was carried out by freezing. The number of cells was calculated using a haemacyto meter. […]
# [3] = tested on: cultured human hair follicle epithelial cells; assay: Cell proliferation test using cultured human hair follicle epithelial cells (alamar blue); assay type: cell-based; settings: object substance concentration 1.0×10^−5% in KBM medium, 2 days culture, negative control 0, positive control (insulin + hydrocortisone) 1
# Protocol: <Cell Proliferation Tests Using Cultured Hair Follicle Epithelial Cells>
# A. Human Hair Follicle Epithelial Cells
# 1. Collection of Human Hair Follicle Epithelial Cells
# Hair follicles in the growth period of the hair cycle were collected mechanically under a stereoscopic microscope from male human scalp skin obtained as a by-product from surgery.
# The growth period hair follicles were treated for 30 minutes at 37° C. with Dulbecco's modified MEM (DMEM) containing 1000 U/ml dispase and 0.2% collagenase, and the dermal sheath, dermal papilla and hair bulb epithelial tissue were removed using the tip of an injection needle, and then treatment was carried out for 5 minutes at 37° C. with a phosphate buffer solution (PBS(−); ‘(−)’ means not containing calcium ions, magnesium ions etc.) containing 0.05% trypsin and 0.02% EDTA. […]
# Next, the cells were suspended in the above-mentioned serum-free medium, sowing was carried out in a collagen-coated (type I) culture dish at a density of 5000 cells/cm^2, medium exchange was carried out every 2 days until the cells became subconfluent, and then treatment was again carried out for 5 minutes at 37° C. with 0.05 wt % trypsin and 0.02% EDTA, the reaction was then stopped with an equivalent of 0.1% trypsin inhibitor, and centrifuging (800×g, 5 minutes) was carried out. […] The number of cells was calculated using a haemacyto meter. […]
smiles,measurement,setting,value
CNCCS(=O)(=O)O [N-methyltaurine],"Immortalized outer hair root sheath cell activation action (extent of cell proliferation, relative DNA amount, FIG. 1)",[1],has an immortalized outer hair root sheath cell activation action
same,Cell proliferation effect (cell proliferation index),[2],0.62
same,Cell proliferation effect (cell proliferation index),[3],0.64
